Data: patent publication US8563559B2 (Rigel Pharmaceuticals, Inc., priority 2006, dated 2013)

target: T1, Axl (Homo sapiens, UniProt P30530); assay: Phospho-AKT in-cell Western assay (inhibition of Axl activity); type: cell-based; conditions: Table 1, formula (Ia); Hela cells, Axl antibody cross-linking stimulation, phospho-Akt chemiluminescence normalized to relative cell number
T1 construct: endogenous in cells; host or cells: HeLa
T1 sequence (P30530 26-894): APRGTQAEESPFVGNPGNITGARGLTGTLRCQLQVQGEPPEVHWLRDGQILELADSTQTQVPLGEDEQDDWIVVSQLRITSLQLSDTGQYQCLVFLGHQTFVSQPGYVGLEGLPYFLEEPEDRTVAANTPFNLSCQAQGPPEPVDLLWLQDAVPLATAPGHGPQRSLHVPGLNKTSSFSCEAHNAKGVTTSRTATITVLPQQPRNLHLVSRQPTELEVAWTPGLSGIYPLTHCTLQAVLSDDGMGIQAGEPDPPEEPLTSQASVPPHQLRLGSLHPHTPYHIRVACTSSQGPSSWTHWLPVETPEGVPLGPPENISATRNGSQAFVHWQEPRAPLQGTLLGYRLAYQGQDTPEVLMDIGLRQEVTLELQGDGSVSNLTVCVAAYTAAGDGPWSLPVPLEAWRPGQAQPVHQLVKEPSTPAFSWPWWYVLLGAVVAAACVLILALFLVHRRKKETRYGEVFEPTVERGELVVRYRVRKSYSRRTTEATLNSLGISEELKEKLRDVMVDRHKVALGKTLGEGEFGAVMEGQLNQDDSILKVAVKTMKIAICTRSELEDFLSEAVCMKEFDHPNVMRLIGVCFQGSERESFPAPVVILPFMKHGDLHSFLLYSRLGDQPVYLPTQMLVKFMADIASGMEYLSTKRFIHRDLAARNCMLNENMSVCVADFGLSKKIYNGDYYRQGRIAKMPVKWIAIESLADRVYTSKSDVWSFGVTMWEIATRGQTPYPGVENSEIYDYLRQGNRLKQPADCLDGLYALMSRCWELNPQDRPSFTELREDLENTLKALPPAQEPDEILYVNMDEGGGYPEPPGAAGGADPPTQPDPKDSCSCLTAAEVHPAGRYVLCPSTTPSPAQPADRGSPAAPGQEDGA
Experimental: The compounds of the invention were tested in the following assay for their ability to inhibit Axl activity.
Phospho-AKT in-Cell Western Assay
• Cell culture plate: 96 well assay plate (Corning 3610), white, clear bottom, tissue-culture treated. • Cells: Hela cells. • Starvation medium: For Axl stimulation: 0.5% FCS (fetal calf serum) in DMEM, plus Axl/Fc (extracellular domain of AXL fused to immunoglobulin Fc region) (R&D, 154-AL) 500 ng/mL. • For EGF (epidermal growth factor) stimulation: 0.5% FCS in DMEM (Dulbecco's modified Eagles medium). • Poly-L-Lysine 0.01% solution (the working solution): 10 μg/ml, dilute In PBS (phosphate buffered saline). • Axl antibody cross-linking: • 1st: Mouse anti-Axl (R&D, MAB154). • 2nd: Biotin-SP-conjugated AffiniPure goat anti-mouse IgG (H+L) (Jackson ImmunoResearch #115-065-003). • Fixing buffer: 4% formaldehyde in PBS. • Wash buffer: 0.1% TritonX-100 in PBS. • Quenching buffer: 3% H2O2, 0.1% Azide in wash buffer, Azide and hydrogen peroxide 1(H2O2) are added fresh. • Blocking buffer: 5% BSA in TBST (tris buffered saline plus 0.1% Tween 20). • Primary antibody: Rabbit anti-human Phospho-Akt antibody (Cell Signaling 9271): 1×250 diluted in blocking buffer. • Secondary antibody: HRP (horse radish peroxidase)-conjugated Goat anti-Rabbit secondary, stock solution: Jackson ImmunoResearch (Goat anti-Rabbit HRP, #111-035-144) 1:1 diluted in glycerol, store at −20° C. The working solution: 1×2000 dilution of stock in blocking buffer. • Chemiluminescent working solution (Pierce, 37030): SuperSignal ELISA (enzyme linked immunosorbant assay) Pico Chemiluminescent substrate. • Crystal Violet solution: Stock: 2.5% Crystal violet in methanol, filtered and kept at ambient temperature. The working solution: dilute the stock 1:20 with PBS immediately before use. • 10% SDS: working solution: 5% SDS (sodium dodecylsulfate), diluted in PBS Methods: Day 1:
A 96 well TC (tissue culture treated) plate was coated with 10 μg/mL poly-L-Lysine at 37° C. for 30 min, washed twice with PBS, and air-dried for 5 minutes before cells were added. Hela cells were seeded at 10,000 cells/well and the cells were starved in 100 μL starvation medium containing Axl/Fc for 24 hrs.
The cells were pre-treated with test compounds by adding 100 μL of 2× test compound to the starvation medium on the cells. The cells were incubated at 37° C. for 1 hr before stimulation.
The cells were stimulated by Axl-antibody cross-linking as follows: A 5×1st/2nd Axl antibody mixture was made (37.5 μg/mL 1st/100 μg/mL 2nd) in starvation medium and nutated at 4° C. with thorough mixing for 1-2 hours for clustering. The resulting mix was warmed to 37° C. 50 μL of 5×Axl 1st/2nd of antibody cluster was added to the cells and the cells were incubated at 37° C. for 5 min.
After 5 minutes stimulation, the plate was flicked to remove medium and the plate was tapped onto paper towels. Formaldehyde (4.0% in PBS, 100 μL) was added to fix the cells and the cells were incubated at ambient temperature for 20 min without shaking.
The cells were washed with a plate washer buffer to remove the formaldehyde solution. The plate was flicked to removed excess wash buffer and tapped onto paper towels. Quenching buffer (100 μL) was added to each well and the cells were incubated at ambient temperature for 20 minutes without shaking.
The cells were washed with a plate washer buffer to remove the quenching buffer. Blocking buffer (100 μL) was added and the cells were incubated at ambient temperature for at least an hour with gentle shaking.
The cells were washed with a plate washer buffer and diluted primary antibody (50 μL) was added to each well (blocking buffer was added to the negative control wells instead). The plates were incubated overnight at 4° C. with gentle shaking.
The wash buffer was removed, diluted secondary antibody (100 μL) was added, and the cells were incubated at ambient temperature for 1 hour with gentle shaking. […]

Structure (SMILES) | IC50 [nM]
CNC(=O)[C@H]1C[C@H]2C[C@H](C2(C)C)[C@@]1(C)Nc1nc(Nc2ccc(OCCN3CCCC3)cc2)ncc1Cl [Compound 1, (1R,2R,3S,5R)-2-(5-chloro-2-(4-(2-(pyrrolidin-1-yl)ethoxy)phenylamino)pyrimidin-4-ylamino)-N,2,6,6-tetramethylbicyclo[3.1.1]heptane-3-carboxamide] | < 1000
CNC(=O)[C@H]1C[C@H]2C[C@H](C2(C)C)[C@@]1(C)Nc1nc(Nc2ccc(OCCN3CCCC3)c(F)c2)ncc1Cl [Compound 3, (1R,2R,3S,5R)-2-(5-chloro-2-(3-fluoro-4-(2-(pyrrolidin-1-yl)ethoxy)phenylamino)pyrimidin-4-ylamino)-N,2,6,6-tetramethylbicyclo[3.1.1]heptane-3-carboxamide] | < 1000
CNC(=O)[C@H]1C[C@H]2C[C@H](C2(C)C)[C@@]1(C)Nc1nc(Nc2ccc(OCC(C)(C)N3CCCC3)cc2)ncc1Cl [Compound 8, (1R,2R,3S,5R)-2-(5-chloro-2-(4-(2-methyl-2-(pyrrolidin-1-yl)propoxy)phenylamino)pyrimidin-4-ylamino)-N,2,6,6-tetramethylbicyclo[3.1.1]heptane-3-carboxamide] | < 1000
CNC(=O)[C@H]1C[C@H]2C[C@H](C2(C)C)[C@@]1(C)Nc1nc(Nc2ccc(OCCNC3CCCC3)cc2)ncc1Cl [Compound 9, (1R,2R,3S,5R)-2-(5-chloro-2-(4-(2-(cyclopentylamino)ethoxy)phenylamino)pyrimidin-4-ylamino)-N,2,6,6-tetramethylbicyclo[3.1.1]heptane-3-carboxamide] | < 1000
CNC(=O)[C@H]1C[C@H]2C[C@H](C2(C)C)[C@@]1(C)Nc1nc(Nc2ccc(C(=O)N3CCN(C4CCCCC4)CC3)cc2)ncc1Cl [Compound 10, (1R,2R,3S,5R)-2-(5-chloro-2-(4-(4-cyclohexylpiperazine-1-carbonyl)phenylamino)pyrimidin-4-ylamino)-N,2,6,6-tetramethylbicyclo[3.1.1]heptane-3-carboxamide] | < 1000
CNC(=O)[C@H]1C[C@H]2C[C@H](C2(C)C)[C@@]1(C)Nc1nc(Nc2ccc(C3CCN(C)CC3)cc2)ncc1Cl [Compound 12, (1R,2R,3S,5R)-2-(5-chloro-2-(4-(1-methylpiperidin-4-yl)phenylamino)pyrimidin-4-ylamino)-N,2,6,6-tetramethylbicyclo[3.1.1]heptane-3-carboxamide] | < 1000
CNC(=O)[C@H]1C[C@H]2C[C@H](C2(C)C)[C@@]1(C)Nc1nc(Nc2ccc(C(=O)N3CCN(C)CC3)c(Cl)c2)ncc1Cl [Compound 14] | < 1000
CNC(=O)[C@H]1C[C@H]2C[C@H](C2(C)C)[C@@]1(C)Nc1nc(Nc2ccc(Cl)c(N3CCN(C(C)=O)CC3)c2)ncc1Cl [Compound 16, (1R,2R,3S,5R)-2-(2-(3-(4-acetylpiperazin-1-yl)-4-chlorophenylamino)-5-chloropyrimidin-4-ylamino)-N,2,6,6-tetramethylbicyclo[3.1.1]heptane-3-carboxamide] | 1000 to 10000
CN1CCN(c2ccc(Nc3ncc(Cl)c(N[C@@]4(CCOCc5ccccc5)[C@@H](C(N)=O)C[C@H]5C[C@@H]4C5(C)C)n3)cc2F)CC1 [Compound 17, (1R,2R,3S,5R)-2-(2-(benzyloxy)ethyl)-2-(5-chloro-2-(3-fluoro-4-(4-methylpiperazin-1-yl)phenylamino)pyrimidin-4-ylamino)-6,6-dimethylbicyclo[3.1.1]heptane-3-carboxamide] | > 20000
CNC(=O)[C@H]1C[C@H]2C[C@H](C2(C)C)[C@@]1(C)Nc1nc(Nc2ccc(Cl)c(N3CCN(C(=O)OC)CC3)c2)ncc1Cl [Compound 18, (1R,2R,3S,5R)-2-(2-(3-(4-(methoxycarbonyl)piperazin-1-yl)-4-chlorophenylamino)-5-chloropyrimidin-4-ylamino)-N,2,6,6-tetramethylbicyclo[3.1.1]heptane-3-carboxamide] | > 20000

Second part, the molecule after the results:

IC50 [nM] | Structure (SMILES)
1000 to 10000 | CNC(=O)[C@H]1C[C@H]2C[C@H](C2(C)C)[C@@]1(C)Nc1nc(Nc2ccc(N3CCOCC3)cc2)ncc1Cl [Compound 2, (1R,2R,3S,5R)-2-(5-chloro-2-(4-morpholinophenylamino)pyrimidin-4-ylamino)-N,2,6,6-tetramethylbicyclo[3.1.1]heptane-3-carboxamide]
< 1000 | CNC(=O)[C@H]1C[C@H]2C[C@H](C2(C)C)[C@@]1(C)Nc1nc(Nc2ccc(N3CCN(C)CC3)c(F)c2)ncc1Cl [Compound 4, (1R,2R,3S,5R)-2-(5-chloro-2-(3-fluoro-4-(4-methylpiperazin-1-yl)phenylamino)pyrimidin-4-ylamino)-N,2,6,6-tetramethylbicyclo[3.1.1]heptane-3-carboxamide]
< 1000 | CNC(=O)[C@H]1C[C@H]2C[C@H](C2(C)C)[C@@]1(C)Nc1nc(Nc2ccc(N3CCN(C)CC3)c(Cl)c2)ncc1Cl [Compound 5, (1R,2R,3S,5R)-2-(5-chloro-2-(3-chloro-4-(4-methylpiperazin-1-yl)phenylamino)pyrimidin-4-ylamino)-N,2,6,6-tetramethylbicyclo[3.1.1]heptane-3-carboxamide]
> 20000 | CNC(=O)[C@H]1C[C@H]2C[C@H](C2(C)C)[C@@]1(C)Nc1nc(Nc2ccc(N3CCN(c4ccc(F)cc4)CC3)cc2)ncc1Cl [Compound 11, (1R,2R,3S,5R)-2-(5-chloro-2-(4-(4-(4-fluorophenyl)piperazin-1-yl)phenylamino)pyrimidin-4-ylamino)-N,2,6,6-tetramethylbicyclo[3.1.1]heptane-3-carboxamide]
1000 to 10000 | CNC(=O)[C@H]1C[C@H]2C[C@H](C2(C)C)[C@@]1(C)Nc1nc(Nc2ccc(N3CCN(C(C)=O)CC3)cc2)ncc1Cl [Compound 13, (1R,2R,3S,5R)-2-(2-(4-(4-acetylpiperazin-1-yl)phenylamino)-5-chloropyrimidin-4-ylamino)-N,2,6,6-tetramethylbicyclo[3.1.1]heptane-3-carboxamide]
1000 to 10000 | CCN1CCN(c2cc(Nc3ncc(Cl)c(N[C@@]4(C)[C@@H](C(=O)NC)C[C@H]5C[C@@H]4C5(C)C)n3)ccc2Cl)CC1 [Compound 15, (1R,2R,3S,5R)-2-(5-chloro-2-(4-chloro-3-(4-ethylpiperazin-1-yl)phenylamino)pyrimidin-4-ylamino)-N,2,6,6-tetramethylbicyclo[3.1.1]heptane-3-carboxamide]
